# Assay results: ChEMBL document CHEMBL1201861, “Genomics of Drug Sensitity in Cancer screening data, Wellcome Trust Sanger Institute”
# How the values were obtained:
# Assay in all cases: cells
# HT1197 = format: functional, cell-based, HT-1197; settings: Homo sapiens
# Description: SANGER: Inhibition of human HT-1197 cell growth in a cell viability assay.
# SN12C = format: functional, cell-based; settings: Homo sapiens;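 note: growth inhibition of human SN12C cells, measured by a cell viability assay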
# Description: SANGER: Inhibition of human SN12C cell growth in a cell viability assay.
# NCI-H630 = format: functional, cell-based; settings: Homo sapiens;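 note: growth inhibition of NCI-H630 cells, read out with a cell viability assay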
# Description: SANGER: Inhibition of human NCI-H630 cell growth in a cell viability assay.
# NCI-H1882 = format: functional, cell-based, Homo sapiens; settings: Homo sapiens, NCI-H1882;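 note: growth inhibition of the cell line, determined with a viability assay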
# Description: SANGER: Inhibition of human NCI-H1882 cell growth in a cell viability assay.
# SW1463 = format: functional, cell-based; settings: Homo sapiens;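 note: growth inhibition of SW1463 cells, determined with a cell viability assay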
# Description: SANGER: Inhibition of human SW1463 cell growth in a cell viability assay.
# SK-HEP1 = format: functional, cell-based, SK-HEP-1; settings: Homo sapiens;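 note: cell viability readout used to quantify reduction in proliferation of human SK-HEP-1 cells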
# Description: SANGER: Inhibition of human SK-HEP-1 cell growth in a cell viability assay.
# BC-3 = format: functional, cell-based, Homo sapiens; settings: Homo sapiens, BC-3;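 note: cell viability assay measuring growth inhibition of human BC-3 cells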
# Description: SANGER: Inhibition of human BC-3 cell growth in a cell viability assay.
# GDM-1 = format: functional, cell-based, Homo sapiens; settings: Homo sapiens, GDM-1; read-out: IC50;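 note: cell viability readout used to measure growth inhibition of human GDM-1 cells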
# Description: SANGER: Inhibition of human GDM-1 cell growth in a cell viability assay.
# MEL-JUSO = format: functional, cell-based; settings: Homo sapiens;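 note: growth inhibition of human MEL-JUSO cells, read out with a cell viability assay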
# Description: SANGER: Inhibition of human MEL-JUSO cell growth in a cell viability assay.
# HN = format: functional, cell-based; settings: Homo sapiens
# Description: SANGER: Inhibition of human HN cell growth in a cell viability assay.
# ChaGo-K-1 = format: functional, cell-based; settings: Homo sapiens;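 note: growth inhibition of ChaGo-K-1 cells, read out with a cell viability assay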
# Description: SANGER: Inhibition of human ChaGo-K-1 cell growth in a cell viability assay.
# RVH-421 = format: functional, cell-based; settings: Homo sapiens
# Description: SANGER: Inhibition of human RVH-421 cell growth in a cell viability assay.
# SW1417 = format: functional, cell-based; settings: Homo sapiens;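 note: growth inhibition of human SW1417 cells, read out with a cell viability assay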
# Description: SANGER: Inhibition of human SW1417 cell growth in a cell viability assay.
# BEN = format: functional, cell-based; settings: Homo sapiens;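 note: growth inhibition of the BEN cell line, read out with a cell viability assay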
# Description: SANGER: Inhibition of human BEN cell growth in a cell viability assay.
# A673 = format: functional, cell-based; settings: Homo sapiens;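 note: growth inhibition of human A673 cells, read out through a cell viability assay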
# Description: SANGER: Inhibition of human A673 cell growth in a cell viability assay.
# MRK-nu-1 = format: functional, cell-based, Homo sapiens; settings: Homo sapiens, MRK-nu-1;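 note: cell viability assay measuring growth suppression of human MRK-nu-1 cells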
# Description: SANGER: Inhibition of human MRK-nu-1 cell growth in a cell viability assay.
# OVCAR-8 = format: functional, cell-based; settings: Homo sapiens;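 note: growth inhibition of human OVCAR-8 cells, read out by a cell viability assay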
# Description: SANGER: Inhibition of human OVCAR-8 cell growth in a cell viability assay.
# SIMA = format: functional, cell-based, Homo sapiens; settings: Homo sapiens, SIMA;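 note: growth inhibition of SIMA cells, measured with a cell viability readout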
# Description: SANGER: Inhibition of human SIMA cell growth in a cell viability assay.
# PANC-08-13 = format: functional, cell-based; settings: Homo sapiens;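 note: cell growth inhibition, measured with a cell viability assay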
# Description: SANGER: Inhibition of human PANC-08-13 cell growth in a cell viability assay.
# SCC-3 = format: functional, cell-based, Homo sapiens; settings: Homo sapiens, SCC-3;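 note: cell viability assay measuring inhibition of SCC-3 cell growth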
# Description: SANGER: Inhibition of human SCC-3 cell growth in a cell viability assay.
# MKN-7 = format: functional, cell-based; settings: Homo sapiens;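 note: growth inhibition of MKN-7 cells, read out with a cell viability assay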
# Description: SANGER: Inhibition of human MKN7 cell growth in a cell viability assay.
# M14 = format: functional, cell-based; settings: Homo sapiens;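 note: growth inhibition of M14 cells, read out with a cell viability assay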
# Description: SANGER: Inhibition of human M14 cell growth in a cell viability assay.
# SW756 = format: functional, cell-based; settings: Homo sapiens;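 note: growth inhibition of human SW756 cells, read out with a cell viability assay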
# Description: SANGER: Inhibition of human SW756 cell growth in a cell viability assay.
# CA46 = format: functional, cell-based, Homo sapiens; settings: Homo sapiens, CA46;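 note: growth inhibition of human CA46 cells, read out by a cell viability assay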
# Description: SANGER: Inhibition of human CA46 cell growth in a cell viability assay.
# T47D = format: functional, cell-based; settings: Homo sapiens;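 note: growth inhibition of human T47D cells, measured with a cell viability assay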
# Description: SANGER: Inhibition of human T47D cell growth in a cell viability assay.
# KOSC-2 = format: functional, cell-based; settings: Homo sapiens;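 note: growth inhibition of KOSC-2 cells, read out by a cell viability assay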
# Description: SANGER: Inhibition of human KOSC-2 cell growth in a cell viability assay.
# ESS-1 = format: functional, cell-based; settings: Homo sapiens;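 note: growth inhibition of human ESS-1 cells, read out by a cell viability assay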
# Description: SANGER: Inhibition of human ESS-1 cell growth in a cell viability assay.
# NCI-H661 = format: functional, cell-based; settings: Homo sapiens;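 note: cell viability assay read-out, IC50 being the concentration that inhibits growth of the cells by half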
# Description: SANGER: Inhibition of human NCI-H661 cell growth in a cell viability assay.
# TE-441-T = format: functional, cell-based, Homo sapiens; settings: Homo sapiens, TE-441-T
# Description: SANGER: Inhibition of human TE-441-T cell growth in a cell viability assay.
# CAL-148 = format: functional, cell-based, Homo sapiens; settings: Homo sapiens, CAL-148
# Description: SANGER: Inhibition of human CAL-148 cell growth in a cell viability assay.
# SAOS-2 = format: functional, cell-based; settings: Homo sapiens;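 note: growth inhibition of human Saos-2 cells determined by a cell viability assay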
# Description: SANGER: Inhibition of human Saos-2 cell growth in a cell viability assay.
# NCI-H510A = format: functional, cell-based, Homo sapiens; settings: Homo sapiens, NCI-H510A;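 note: growth inhibition of NCI-H510A cells, read out with a cell viability assay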
# Description: SANGER: Inhibition of human NCI-H510A cell growth in a cell viability assay.
# 8305C = format: functional, cell-based; settings: Homo sapiens
# Description: SANGER: Inhibition of human 8305C cell growth in a cell viability assay.
# RPMI-7951 = format: functional, cell-based; settings: Homo sapiens
# Description: SANGER: Inhibition of human RPMI-7951 cell growth in a cell viability assay.
# MeWo = format: functional, cell-based; settings: Homo sapiens;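 note: growth inhibition of MeWo cells, determined by a cell viability readout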
# Description: SANGER: Inhibition of human Mewo cell growth in a cell viability assay.
# NCI-H358 = format: functional, cell-based; settings: Homo sapiens;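 note: growth inhibition of NCI-H358 human cells, read out with a cell viability assay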
# Description: SANGER: Inhibition of human NCI-H358 cell growth in a cell viability assay.
# CAL-27 = format: functional, cell-based; settings: Homo sapiens;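 note: Viability-based readout, IC50 reflecting inhibition of CAL-27 cell growth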
# Description: SANGER: Inhibition of human CAL-27 cell growth in a cell viability assay.
# LU-165 = format: functional, cell-based, Homo sapiens; settings: Homo sapiens, LU-165
# Description: SANGER: Inhibition of human LU-165 cell growth in a cell viability assay.
# LCLC-103H cell line = format: functional, cell-based; settings: Homo sapiens
# Description: SANGER: Inhibition of human LCLC-103H cell growth in a cell viability assay.
# SW13 = format: functional, cell-based; settings: Homo sapiens;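 note: IC50 is inhibition of SW13 cell growth, read out with a cell viability assay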
# Description: SANGER: Inhibition of human SW13 cell growth in a cell viability assay.
# HuP-T3 = format: functional, cell-based; settings: Homo sapiens;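 note: HuP-T3 cell growth inhibition, read out with a cell viability assay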
# Description: SANGER: Inhibition of human HuP-T3 cell growth in a cell viability assay.
# UO-31 = format: functional, cell-based; settings: Homo sapiens;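 note: cell viability assay measuring inhibition of cell growth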
# Description: SANGER: Inhibition of human U031 cell growth in a cell viability assay.
# LB647-SCLC = format: functional, cell-based, Homo sapiens; settings: Homo sapiens, LB647-SCLC;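 note: cell growth inhibition, read out by a viability assay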
# Description: SANGER: Inhibition of human LB647-SCLC cell growth in a cell viability assay.
# JEG-3 = format: functional, cell-based; settings: Homo sapiens;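 note: growth inhibition of human JEG-3 cells, read out with a cell viability assay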
# Description: SANGER: Inhibition of human JEG-3 cell growth in a cell viability assay.
# Daudi = format: functional, cell-based, Homo sapiens; settings: Homo sapiens, Daudi;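 note: growth inhibition of Daudi cells, read out by a viability assay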
# Description: SANGER: Inhibition of human Daudi cell growth in a cell viability assay.
# SIG-M5 = format: functional, cell-based, Homo sapiens; settings: Homo sapiens, SIG-M5;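 note: cell viability assay read-out, measuring how strongly growth of cultured human SIG-M5 cells is inhibited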
# Description: SANGER: Inhibition of human SIG-M5 cell growth in a cell viability assay.
# BCPAP = format: functional, cell-based; settings: Homo sapiens;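 note: growth inhibition of BCPAP cells, read out in a cell viability assay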
# Description: SANGER: Inhibition of human BCPAP cell growth in a cell viability assay.
# LN-405 = format: functional, cell-based; settings: Homo sapiens
# Description: SANGER: Inhibition of human LN-405 cell growth in a cell viability assay.
# CWR22R = format: functional, cell-based; settings: Homo sapiens, 22Rv1;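 note: growth inhibition of 22Rv1 cells, read out with a cell viability assay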
# Description: SANGER: Inhibition of human 22RV1 cell growth in a cell viability assay.
# ASPC1 = format: functional, cell-based; settings: Homo sapiens;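 note: growth inhibition of AsPC-1 cells, read out with a cell viability assay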
# Description: SANGER: Inhibition of human AsPC-1 cell growth in a cell viability assay.
# REH = format: functional, cell-based, Homo sapiens; settings: Homo sapiens, REH;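 note: growth inhibition of REH cells determined with a cell viability read-out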
# Description: SANGER: Inhibition of human REH cell growth in a cell viability assay.
# D-542MG = format: functional, cell-based; settings: Homo sapiens
# Description: SANGER: Inhibition of human D-542MG cell growth in a cell viability assay.
# NCI-H2052 = format: functional, cell-based; settings: Homo sapiens;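 note: growth inhibition of NCI-H2052 cells, read out with a cell viability assay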
# Description: SANGER: Inhibition of human NCI-H2052 cell growth in a cell viability assay.
# MKN-45 = format: functional, cell-based; settings: Homo sapiens;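 note: growth inhibition of human MKN-45 cells, measured with a cell viability assay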
# Description: SANGER: Inhibition of human MKN45 cell growth in a cell viability assay.
# SW837 = format: functional, cell-based; settings: Homo sapiens;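 note: growth inhibition of SW837 cells, determined with a cell viability assay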
# Description: SANGER: Inhibition of human SW837 cell growth in a cell viability assay.
# KYSE-270 = format: functional, cell-based; settings: Homo sapiens;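 note: cell growth inhibition measured with a viability assay in the human KYSE-270 line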
# Description: SANGER: Inhibition of human KYSE-270 cell growth in a cell viability assay.
# Calu-3 = format: functional, cell-based; settings: Homo sapiens;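 note: growth inhibition of human Calu-3 cells, determined with a cell viability assay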
# Description: SANGER: Inhibition of human Calu-3 cell growth in a cell viability assay.
# Daoy = format: functional, cell-based; settings: Homo sapiens;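 note: daoy cell growth inhibition, read out as cell viability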
# Description: SANGER: Inhibition of human Daoy cell growth in a cell viability assay.
compound,measurement,setting,value
COC(=O)[C@H](CCSC)NC(=O)c1ccc(NC[C@@H](N)CS)cc1-c1ccccc1,IC50,HT1197,> 1020 nM
same,IC50,SN12C,> 1020 nM
same,IC50,NCI-H630,> 1020 nM
same,IC50,NCI-H1882,> 1020 nM
same,IC50,SW1463,> 1020 nM
same,IC50,SK-HEP1,> 1020 nM
same,IC50,BC-3,> 1020 nM
same,IC50,GDM-1,> 1020 nM
same,IC50,MEL-JUSO,184 nM
same,IC50,HN,> 1020 nM
same,IC50,ChaGo-K-1,> 1020 nM
same,IC50,RVH-421,> 1020 nM
same,IC50,SW1417,> 1020 nM
same,IC50,BEN,> 1020 nM
same,IC50,A673,> 1020 nM
same,IC50,MRK-nu-1,> 1020 nM
same,IC50,OVCAR-8,> 1020 nM
same,IC50,SIMA,> 1020 nM
same,IC50,PANC-08-13,> 1020 nM
same,IC50,SCC-3,> 1020 nM
same,IC50,MKN-7,> 1020 nM
same,IC50,M14,> 1020 nM
same,IC50,SW756,> 1020 nM
same,IC50,CA46,> 1020 nM
same,IC50,T47D,> 1020 nM
same,IC50,KOSC-2,> 1020 nM
same,IC50,ESS-1,> 1020 nM
same,IC50,NCI-H661,> 1020 nM
same,IC50,TE-441-T,> 1020 nM
same,IC50,CAL-148,> 1020 nM
same,IC50,SAOS-2,> 1020 nM
same,IC50,NCI-H510A,> 1020 nM
same,IC50,8305C,> 1020 nM
same,IC50,RPMI-7951,> 1020 nM
same,IC50,MeWo,> 1020 nM
same,IC50,NCI-H358,> 1020 nM
same,IC50,CAL-27,> 1020 nM
same,IC50,LU-165,> 1020 nM
same,IC50,LCLC-103H cell line,> 1020 nM
same,IC50,SW13,> 1020 nM
same,IC50,HuP-T3,> 1020 nM
same,IC50,UO-31,> 1020 nM
same,IC50,LB647-SCLC,> 1020 nM
same,IC50,JEG-3,> 1020 nM
same,IC50,Daudi,> 1020 nM
same,IC50,SIG-M5,> 1020 nM
same,IC50,BCPAP,> 1020 nM
same,IC50,LN-405,> 1020 nM
same,IC50,CWR22R,> 1020 nM
same,IC50,ASPC1,> 1020 nM
same,IC50,REH,> 1020 nM
same,IC50,D-542MG,> 1020 nM
same,IC50,NCI-H2052,> 1020 nM
same,IC50,MKN-45,> 1020 nM
same,IC50,SW837,> 1020 nM
same,IC50,KYSE-270,> 1020 nM
same,IC50,Calu-3,> 1020 nM
same,IC50,Daoy,> 1020 nM
